Entries after “also recorded” stand apart in the source; their conditions may differ.
Columns and labels:
Assay type in all cases: cell-based
NIH3T3 cells = assay: Evaluation of protein expression effect (luciferase luminescence), Cell experiment 2; conditions: lipid nanoparticle containing mRNA, 100 ng mRNA/20 μL per well, 24 hours, amount of luminescence as index
Experimental: (§1) For lipids (Ia), (Ib), and (Ie) of Examples 1, 2, and 5, a cell experiment was carried out by using HEK293T cells and NIH3T3 cells in order to evaluate lipid nanoparticles encapsulating an mRNA. By transfecting the cells with lipid nanoparticles and measuring the amount of a predetermined protein produced, the performance of the lipid nanoparticles used can be evaluated. Hereinafter, the procedure of the cell experiment will be shown.
(§2) A. Seeding of Cells • (i) A liquid medium (DMEM High glucose, FBS+, P/S+) was temperature-controlled in an incubator set at 37° C. • (ii) A cryotube containing cells was taken out from a −80° C. freezer and thawed at once in the incubator set at 37° C. • (iii) A test tube was subjected to a centrifuge to precipitate the cells. • (iv) The supernatant was aspirated, and the liquid medium was added and gently tapped to disperse the cells. • (v) A small amount of the cells-dispersed liquid medium was collected, and the number of cells was observed and counted under a microscope. • (vi) The cells were seeded in three 24-well black plates such that the number of cells was 1×10^4 cells per well. The 24-well black plates were placed in an incubator, and the cells were cultured for 24 hours under conditions of 37° C. and 5% CO2.
(§3) B. Transfection • (i) A lipid nanoparticle-containing solution including an mRNA was concentrated such that the mRNA concentration was 100 ng/20 μL (=0.005 μg/μL). • (ii) A liquid medium (DMEM High glucose, FBS-, P/S-) and FBS were warmed to 37° C., required amounts of the liquid medium and FBS were mixed (FBS concentration of liquid medium at this time: 12.5%), and the prepared liquid medium was filter-sterilized through a 0.22 μm filter. • (iii) The liquid medium supernatant in the 24-well black plates in which the cells were cultured was aspirated and 80 μL per well of the prepared liquid medium was added. • (iv) 20 μL per well of RFW and the lipid nanoparticle-containing solution adjusted to the above concentration was added. • (v) The 24-well black plates were placed in an incubator, and the cells were cultured for 24 hours under conditions of 37° C. and 5% CO2.
(§4) C. Evaluation of Protein Expression Effect (Detection of Gaussia Luciferase (GLuc))
(§5) Evaluation of the protein expression effect was carried out by using Gaussia Luciferase Assay Kit manufactured by Thermo Scientific. • (i) The cells cultured in B. (v) above were taken out from the incubator and allowed to stand at room temperature. • (ii) 20 μL of the supernatant in the plates was collected and added to a fresh 96-well white plate. • (iii) 100× Coelenterazine and Gaussia Glow Assay Buffer attached to the kit were returned to room temperature and mixed at 1:100 to prepare a solution. The prepared solution was added to the supernatant at 50 μL per well by using a multipipette. • (iv) The plate was shielded from light with aluminum foil, allowed to stand for 10 minutes, and then measured for the amount of luminescence with a plate reader (manufactured by TECAN, Infinite M200) (measurement time: 2 seconds), and the protein expression level was calculated by using the resulting amount of luminescence as an index.

HEK293T cells = assay: as above; conditions: lipid nanoparticle containing mRNA, 100 ng mRNA/20 μL per well, 24 hours, amount of luminescence as index
Experimental: as §1, §2, §3, §4, §5

[1] = system: HEK293T cells and NIH3T3 cells; assay: Evaluation of toxicity (CellTiter-Fluor Cell Viability Assay, CTF); conditions: lipid nanoparticle containing mRNA; number of surviving cells relative to cells without lipid nanoparticle set at 1; one rating per lipid, printed on the HEK293T line
Experimental: as §1
as §2, with “CO2. […]” for “CO2.”
D. Evaluation of Toxicity (CellTiter-Fluor (Registered Trademark) Cell Viability Assay) • (i) The CellTiter-Fluor (registered trademark) Cell Viability (CTF) Assay Reagent was completely thawed in a 37° C. water bath. • (ii) GF-AFC Substrate was uniformly mixed by using a vortex mixer. • (iii) The required amounts of Buffer and GF-AFC Substrate attached to the CTF Assay Reagent (Kit) were mixed at a mixing ratio of 10 mL:10 μL. • (iv) 100 μL per well of the mixed CTF Reagent mixture was added to a 24-well black plate containing the cells cultured in B. (v) above, and the plate was quickly shielded from light with aluminum foil, and then shaken on a plate shaker for 30 seconds. • (v) The plate was placed in an incubator, […], and the cells were cultured for 30 minutes under conditions of 37° C. and 5% CO2. • (vi) The fluorescence intensity was measured with a plate reader (excitation wavelength of 380 nm, fluorescence wavelength of 505 nm). Based on the obtained measurement results, the number of surviving cells was calculated with the fluorescence intensity of cells to which no lipid nanoparticle was added set at 1. […]

Row | Compound | Protein expression level (NIH3T3 cells) | Protein expression level (HEK293T cells) | CTF Assay [1]
1 | CCCCCCCC/C=C\CCCCCCCCC(CCCCCCC/C=C\CCCCCCCC)OC(=O)C(CCC(=O)O)NC(=O)C(N)CCCNC(=N)N (stereo not drawn) [Example 2, 4-(2-amino-5-guanidinopentanamido)-5-(((9Z,27Z)-hexatriaconta-9,27-dien-18-yl)oxy)-5-oxopentanoic acid] | 25,000 | 800,000 | low cytotoxicity; also recorded: ⊚ (When the number of surviving cells was more than 0.80 and 1.00 or less, a rating of double-circle (excellent) was given)
2 | CCCCCCCC/C=C\CCCCCCCCC(CCCCCCC/C=C\CCCCCCCC)OC(=O)C(NC(=O)C(N)CCCNC(=N)N)C(C)O [Example 5, (9Z,27Z)-hexatriaconta-9,27-dien-18-yl (2S)-2-((S)-2-amino-5-guanidinopentanamido)-3-hydroxybutanoate] | 60,000 | 100,000 | low cytotoxicity; also recorded: ⊚ (When the number of surviving cells was more than 0.80 and 1.00 or less, a rating of double-circle (excellent) was given)
3 | CCCCCCCC/C=C\CCCCCCCCC(CCCCCCC/C=C\CCCCCCCC)OC(=O)C(CC(=O)O)NC(=O)C(N)CCCNC(=N)N (stereo not drawn) [Example 1, 3-(2-amino-5-guanidinopentanamido)-4-(((9Z,27Z)-hexatriaconta-9,27-dien-18-yl)oxy)-4-oxobutanoic acid] | 5,000 | 100,000 | low cytotoxicity; also recorded: ⊚ (When the number of surviving cells was more than 0.80 and 1.00 or less, a rating of double-circle (excellent) was given)
